Here are results for 56 molecules from the Kinase Knowledgebase extract (Sharma et al. 2016).

The experiment deals with PIK3CB;PIK3CG;PIK3CD;PIK3CA (human) (UniProt P48736). Put plainly: Enzyme Assay.

SMILES strings stand for the structures.

A word on the IC50: it is the concentration that gives 50% inhibition. Higher therefore signals weaker potency in that assay. `CN(C)Cc1ccc2nc(-n3ccnc3)nc(N3CCOCC3)c2n1` came in with an IC50 of 3.2 µM.
Then `CNC(=O)c1ccc2nc(-n3ccnc3)nc(N3CCOCC3)c2n1`, with 1.1 µM; and `Cc1noc(-c2ccc3nc(-n4cccn4)nc(N4CCOCC4)c3n2)n1`, with 0.5 µM.
With `COC(=O)c1cc(SC)c2nc(-n3ccnc3)nc(N3CCOCC3)c2n1`, the half-maximal inhibitory concentration (IC50) is 0.35 µM.
Then `OCc1ccc2nc(-n3ccnc3)nc(N3CCOCC3)c2n1`, with 3.99 µM.
With `CN(C)CCNC(=O)c1cc(NCCN(C)C)c2nc(-n3ccnc3)nc(N3CCOCC3)c2n1`, the IC50 is 1.76 µM.
Turning to `CSc1cc(-c2nc(C)no2)nc2c(N3CCOCC3)nc(-n3cccn3)nc12`, the IC50 stood at 0.22 µM. Against the preceding molecule, the IC50 is about 8-fold lower.
Next, `COC(=O)c1cc(SC)c2nc(-c3cnn(C)c3)nc(N3CCOCC3)c2n1`: 1.21 µM; `NC(=O)c1ccc2nc(-n3ccnc3)nc(N3CCOCC3)c2n1`: 1.83 µM; `Cc1ccc2nc(Cl)nc(N3CCOCC3)c2n1`: 8.61 µM.
For `COCc1cc(N(C)C)c2nc(-n3ccnc3)nc(N3CCOCC3)c2n1`, the IC50 came out at 1.16 µM.
`CSc1cc(CO)nc2c(N3CCOCC3)nc(-c3ccsc3)nc12` registered an IC50 of 3.88 µM.
`COC(=O)c1cc(Cl)c2nc(-n3ccnc3)nc(N3CCOCC3)c2n1` displayed an IC50 of 0.81 µM.
Molecule `CN(C)C(=O)c1ccc2nc(-n3ccnc3)nc(N3CCOCC3)c2n1` displayed a half-maximal inhibitory concentration (IC50) of 2.97 µM.
Next, `COCc1noc(-c2ccc3nc(-n4cccn4)nc(N4CCOCC4)c3n2)n1`: 0.83 µM; `COC(=O)c1cc(SC)c2nc(Cl)nc(N3CCOCC3)c2n1`: 3.53 µM; `COC(=O)c1cc(S(C)(=O)=O)c2nc(-n3ccnc3)nc(N3CCOCC3)c2n1`: 0.57 µM.
Take `COC(=O)c1cc(Cl)c2nc(Cl)nc(N3CCOCC3)c2n1`: the IC50 was 12.4 µM.
Then `COC(=O)c1ccc2nc(-c3ccccc3)nc(N3CCOCC3)c2n1`, with 0.43 µM; and `CN(C)CCNCc1ccc2nc(-n3ccnc3)nc(N3CCOCC3)c2n1`, with 1.89 µM; and `COC(=O)c1cc(Cl)c2nc(-n3cccn3)nc(N3CCOCC3)c2n1`, with 1.65 µM.
`COCc1noc(-c2ccc3nc(-n4ccnc4)nc(N4CCOCC4)c3n2)n1` had an IC50 of 0.64 µM.
Then `COCCN(C)c1cc(-c2nc(C)no2)nc2c(N3CCOCC3)nc(-n3cccn3)nc12`, with 2.51 µM; and `COC(=O)c1cc(SC)c2nc(-c3ccncc3)nc(N3CCOCC3)c2n1`, with 5.72 µM.
`COC(=O)c1cc(N(C)C)c2nc(-n3ccnc3)nc(N3CCOCC3)c2n1` displayed an IC50 of 0.42 µM.
In turn, `CSc1cc(-c2nc(C)no2)nc2c(N3CCOCC3)nc(-n3ccnc3)nc12` gave an IC50 of 3.53 µM. This IC50 lies about 8.4-fold higher than the previous one.
Next, `COC(=O)c1cc(S(C)(=O)=O)c2nc(Cl)nc(N3CCOCC3)c2n1`: 2.31 µM; `Cc1nnc(-c2cc(N(C)C)c3nc(-n4ccnc4)nc(N4CCOCC4)c3n2)o1`: 0.23 µM.
Next, `COC(=O)c1cc(SC)c2nc(-c3cccc4[nH]ccc34)nc(N3CCOCC3)c2n1`: 1.27 µM; `COCc1cc(SC)c2nc(-n3ccnc3)nc(N3CCOCC3)c2n1`: 2.31 µM.
`Cc1noc(-c2cc(Cl)c3nc(-n4ccnc4)nc(N4CCOCC4)c3n2)n1`: the IC50 amounted to 3.29 µM.
Then `COC(=O)c1cc(N2CCOCC2)c2nc(-n3ccnc3)nc(N3CCOCC3)c2n1`, with 0.67 µM.
Take `COC(=O)c1cc(SC)c2nc(-c3ccc(OC)cc3)nc(N3CCOCC3)c2n1`: the IC50 came out at 11.4 µM.
Then `Cc1ccc2nc(-n3ccnc3)nc(N3CCOCC3)c2n1`, with 0.95 µM; and `COCCNc1cc(C(=O)OC)nc2c(N3CCOCC3)nc(-n3ccnc3)nc12`, with 1.29 µM.
Then `COC(=O)c1cc(SC)c2nc(-c3ccsc3)nc(N3CCOCC3)c2n1`, with 1.83 µM; and `Cc1noc(-c2cc(N(C)C)c3nc(-n4cccn4)nc(N4CCOCC4)c3n2)n1`, with 0.48 µM.
With `Cc1noc(-c2ccc3nc(-n4ccnc4)nc(N4CCOCC4)c3n2)n1`, the 50% inhibitory concentration (IC50) was 0.8 µM.
`COCc1cc(CN2CCOCC2)c2nc(-n3ccnc3)nc(N3CCOCC3)c2n1` showed an IC50 of 8.45 µM.
Then `OCc1cc(N2CCOCC2)c2nc(-n3ccnc3)nc(N3CCOCC3)c2n1`, with 2.98 µM; and `CSc1cc(C(=O)N(C)C)nc2c(N3CCOCC3)nc(-c3cccc4[nH]ncc34)nc12`, with 0.86 µM.
On to `COC(=O)c1cc(SC)c2nc(-c3ccccc3)nc(N3CCOCC3)c2n1`, for which the IC50 came out at 2.84 µM. This IC50 lies about 3.3-fold higher than the previous one.
Next, `CSc1cc(C(=O)N(C)C)nc2c(N3CCOCC3)nc(-c3cccc(CO)c3)nc12`: 0.14 µM; `CSc1cc(-c2nnc(C)o2)nc2c(N3CCOCC3)nc(-n3ccnc3)nc12`: 0.32 µM; `COC(=O)c1cc(SC)c2nc(C)nc(N3CCOCC3)c2n1`: 6.86 µM.
`COC(=O)c1ccc2nc(-n3ccnc3)nc(N3CCOCC3)c2n1` displayed an IC50 of 0.73 µM.
`Cc1noc(-c2cc(N(C)C)c3nc(-n4ccnc4)nc(N4CCOCC4)c3n2)n1` showed an IC50 of 0.59 µM. The IC50 values of the last two molecules are within 1.5-fold of each other.
Next, `COCCN(C)c1cc(C(=O)OC)nc2c(N3CCOCC3)nc(-n3ccnc3)nc12`: 1.42 µM; `COC(=O)c1cc(-n2cccc2)c2nc(-n3cccc3)nc(N3CCOCC3)c2n1`: 8.06 µM; `COCc1ccc2nc(-n3ccnc3)nc(N3CCOCC3)c2n1`: 0.83 µM.
`c1cnc2c(N3CCOCC3)nc(-n3ccnc3)nc2c1` had a concentration for half-maximal inhibition (IC50) of 5.28 µM.
Next, `COC(=O)c1cc(N2CCN(C)CC2)c2nc(-n3ccnc3)nc(N3CCOCC3)c2n1`: 1.01 µM; `Cc1ccc2nc(-c3ccccc3)nc(N3CCOCC3)c2n1`: 1.84 µM; `COCCN(C)c1cc(-c2nnc(C)o2)nc2c(N3CCOCC3)nc(-n3ccnc3)nc12`: 0.42 µM.
In turn, `COC(=O)c1cc(SC)c2nc(-c3cn[nH]c3)nc(N3CCOCC3)c2n1` had an IC50 of 1.27 µM.
In the case of `CSCc1ccc2nc(-n3ccnc3)nc(N3CCOCC3)c2n1`, the 50% inhibitory concentration (IC50) came to 3.76 µM.
